pIC50: −log10 of the molar value. Read-outs that look alike come from different tables or passages of the source.
Legend:
[1] = molecular target: T1, nuclear factor-kappa B (NF-kB)-inducing kinase (NIK) (Homo sapiens, UniProt Q99558); assay: NIK enzyme inhibition assay (Transcreener ADP fluorescence polarization, NIK ADP-FP); format: biochemical
T1 construct: made in house; host or cells: baculovirus-infected insect cells
Procedure: NIK Enzyme Inhibition Assay:
The ability of the nuclear factor-kappa B (NF-kB)-inducing kinase (NIK) to catalyze the hydrolysis of adenosine-5′-triphosphate (ATP) was monitored using the Transcreener ADP (adenosine-5′-diphosphate) assay (BellBrook Labs). […] Reactions were quenched by the addition of 20 mM 2,2′,2″,2′″-(ethane-1,2-diyldinitrilo)tetraacetic acid and 0.01% Brij 35. The tracer bound to the antibody was displaced by the ADP generated during the NIK reaction, which causes a decrease in fluorescence polarization that was measured by laser excitation at 633 nm with a Fluorescence Correlation Spectroscopy Plus reader (Evotec AG). Equilibrium dissociation constant (Ki) values for NIK inhibitors are calculated from plots of activity vs. inhibitor concentration using Morrison's quadratic equation that accounts for the potential of tight binding, and by also applying the conversion factor that accounted for competitive inhibition and the concentration of substrate used in the assay relative to its Michaelis constant (Km).

[2] = tested on: p52 (NF-kB2) nuclear translocation in HeLa cells; assay: p52 (NF-kB2) nuclear translocation assay in HeLa cells, anti-lymphotoxin beta receptor antibody stimulated (non-classical NF-kB signaling), high content imaging; format: cell-based; conditions: 100 ng/mL anti-lymphotoxin beta receptor antibody for 5 hours, read-out: p52 HeLa Transloc Assay (IC50)
Procedure: (§1) Several assays were developed to profile the cellular activities of NIK inhibitors.
(§2) (2) A second set of cell assay are used to define the selectivity of NIK inhibitors toward inhibition of classical vs. non-classical NF-kB signaling and rely on quantification of the nuclear translocation of p52 (NF-kB2) and REL-A (p65) using high content cellular imaging. For the p52 (non-classical NF-kB signaling) nuclear translocation assay, HeLa cells are treated with different concentrations of compounds (0.2% DMSO final) in medium containing 10% fetal bovine serum and then stimulated with 100 ng/mL of an anti-lymphotoxin beta receptor antibody (R&D Systems) for 5 hours. In the REL-A nuclear translocation assay, HeLa cells are incubated with compounds (0.2% DMSO final) for 4.5 hours in medium containing 10% fetal bovine serum before stimulating them with 10 ng/mL tumor necrosis factor (TNF)-α (R&D Systems) for 30 minutes. Cells are fixed with 4% paraformaldehyde, permeabilized by adding 0.1% Triton X-100 in phosphate buffered saline, and then are incubated with either 2 ug/mL anti-p52 antibody (Millipore) or 400 ng/mL anti-REL-A (p65) antibody (Santa Cruz Biotechnology). Finally, the cells are incubated with an Alexa488-labeled secondary antibody (Invitrogen) and DRAQ5 DNA stain (Biostatus). Imaging is carried out using an Opera reader (Perkin Elmer) and data are analyzed with the aid of Acapella software (Perkin Elmer). The p52 or REL-Atranslocation into the nucleus is quantified by the ratio of the nuclear to cytoplasmic signal intensity. […] The compounds in listed in Table 1 have the corresponding inhibitory value (IC50 in micromolar) for NIK p52 Translocation Assay as set forth in Table 2.
(§3) The compounds in listed in Table 1 have the corresponding inhibitory values (IC50 in micromolar) for the Translocation Assays as set forth in Table 2.

[3] = tested on: REL-A (p65) nuclear translocation in HeLa cells; assay: REL-A (p65) nuclear translocation assay in HeLa cells, TNF-α stimulated (classical NF-kB signaling), high content imaging; format: cell-based; conditions: compound 4.5 h, then 10 ng/mL TNF-α for 30 minutes, read-out: REL-A HeLa Transloc Assay (IC50)
Procedure: as §1, §2, §3

T1 sequence (Q99558 whole entry): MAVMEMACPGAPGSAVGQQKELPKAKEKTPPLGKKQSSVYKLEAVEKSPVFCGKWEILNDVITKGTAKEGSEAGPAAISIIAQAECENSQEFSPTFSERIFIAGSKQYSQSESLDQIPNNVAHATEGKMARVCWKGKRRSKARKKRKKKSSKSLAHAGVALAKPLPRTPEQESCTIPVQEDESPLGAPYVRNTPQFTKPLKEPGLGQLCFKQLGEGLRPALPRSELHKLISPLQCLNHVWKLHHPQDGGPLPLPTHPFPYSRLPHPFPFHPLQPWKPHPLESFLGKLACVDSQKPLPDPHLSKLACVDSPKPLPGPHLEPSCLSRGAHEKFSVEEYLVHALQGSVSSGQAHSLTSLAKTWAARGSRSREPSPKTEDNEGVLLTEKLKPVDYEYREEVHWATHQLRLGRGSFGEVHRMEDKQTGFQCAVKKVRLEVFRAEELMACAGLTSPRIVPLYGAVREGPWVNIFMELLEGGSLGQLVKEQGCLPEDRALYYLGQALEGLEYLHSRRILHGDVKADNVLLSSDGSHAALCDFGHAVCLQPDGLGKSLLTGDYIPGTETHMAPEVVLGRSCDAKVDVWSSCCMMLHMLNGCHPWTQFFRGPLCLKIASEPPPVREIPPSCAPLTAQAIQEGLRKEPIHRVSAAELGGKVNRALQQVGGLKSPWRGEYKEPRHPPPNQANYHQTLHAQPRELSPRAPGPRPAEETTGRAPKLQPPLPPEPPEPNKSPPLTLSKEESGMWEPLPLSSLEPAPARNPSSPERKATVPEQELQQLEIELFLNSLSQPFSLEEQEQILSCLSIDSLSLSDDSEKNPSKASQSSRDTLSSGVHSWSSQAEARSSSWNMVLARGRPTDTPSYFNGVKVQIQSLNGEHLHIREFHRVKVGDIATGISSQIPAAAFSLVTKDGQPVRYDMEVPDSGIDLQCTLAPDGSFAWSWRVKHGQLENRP

SMILES | Ki [1] [nM] | pIC50 ([2]; Homo sapiens) | pIC50 ([3]; Homo sapiens, HeLa) | Ki ([1]; purified NIK 0.5 nM, 10 μM ATP, pH 7.2, Ki from Morrison's quadratic equation) [nM] | pIC50 [2] | pIC50 [3]
Cc1cn[nH]c1-c1cc(C(N)=O)nc(-c2cccc(C#C[C@]3(O)CCN(C)C3=O)c2)n1 [Example 155, 2-[3-[2-[(3R)-3-hydroxy-l-methyl-2-oxo-pyrrolidin-3-yl]ethynyl]phenyl]-6-(4-methyl-1H-pyrazol-5-yl) pyrimidine-4-carboxamide] | < 0.05 | 6.56 | < 5.70 |  |  | 
CN1CC[C@@](O)(C#Cc2cccc(-c3nc(C(N)=O)c(NC[C@@H]4CCO4)cc3F)c2)C1=O [Example 81, 5-fluoro-6-[3-[2-[(3R)-3-hydroxy-1-methyl-2-oxo-pyrrolidin-3-yl]ethynyl]phenyl]-3-[[(2S)-oxetan-2-yl]methylamino] pyridine-2-carboxamide] | 0.05 | 7.29 | ≤ 5.70 |  |  | 
CN1CC[C@@](O)(C#Cc2cccc(-c3nccc(C(N)=O)n3)c2)C1=O [Example 32, 2-[3-[2-[(3R)-3-hydroxy-1-methyl-2-oxo-pyrrolidin-3-yl]ethynyl]phenyl] pyrimidine-4-carboxamide] | 0.22 | 6.61 | < 4.70 |  |  | 
CN1CC[C@@](O)(C#Cc2ccc(F)c(-c3ccc(N)c(C(N)=O)n3)c2)C1=O [Example 84, 3-amino-6-[2-fluoro-5-[2-[(3R)-3-hydroxy-1-methyl-2-oxo-pyrrolidin-3-yl]ethynyl]phenyl] pyridine-2-carboxamide] | 0.05 | 7.85 | 6.00 |  |  | 
CN1CC[C@@](O)(C#Cc2cccc(-c3nc(C(N)=O)cc(-c4ccn(C)n4)n3)c2)C1=O [Example 68, 2-[3-[2-[(3R)-3-hydroxy-1-methyl-2-oxo-pyrrolidin-3-yl]ethynyl]phenyl]-6-(1-methylpyrazol-3-yl) pyrimidine-4-carboxamide] | 0.53 | 7.05 | ≤ 4.70 |  |  | 
CN1CC[C@@](O)(C#Cc2cccc(-c3ncc(NC4COC4)c(C(N)=O)n3)c2)C1=O [Example 88, 2-[3-[2-[(3R)-3-hydroxy-1-methyl-2-oxo-pyrrolidin-3-yl]ethynyl]phenyl]-5-(oxetan-3-ylamino) pyrimidine-4-carboxamide] | 0.05 | 8.67 | ≤ 4.70 |  |  | 
CC(C)c1cc(C(N)=O)nc(-c2cccc(C#C[C@]3(O)CCN(C)C3=O)c2)n1 [Example 16, 2-[3-[2-[(3R)-3-hydroxy-1-methyl-2-oxo-pyrrolidin-3-yl]ethynyl]phenyl]-6-isopropyl-pyrimidine-4-carboxamide] | 0.54 | 6.72 | < 4.70 |  |  | 
Cc1cc(C(N)=O)nc(-c2ccc(F)c(C#C[C@]3(O)CCN(C)C3=O)c2)c1 [Example 164, 6-[4-fluoro-3-[2-[(3R)-3-hydroxy-1-methyl-2-oxo-pyrrolidin-3-yl]ethynyl]phenyl]-4-methyl-pyridine-2-carboxamide] | < 0.05 | 7.21 | < 5.70 |  |  | 
Cc1nnc([C@](C)(O)C#Cc2cccc(-c3nc(C(N)=O)cc(-c4ccnn4C)n3)c2)o1 [Example 137, 2-[3-[(3R)-3-hydroxy-3-(5-methyl-1,3,4-oxadiazol-2-yl)but-1-ynyl]phenyl]-6-(2-methylpyrazol-3-yl)pyrimidine-4-carboxamide] | 3.68 | 6.57 | ≤ 4.70 |  |  | 
Cc1cc(-c2cccc(C#C[C@]3(O)CCN(C)C3=O)c2)nc(C(N)=O)c1N [Example 170, 3-amino-6-[3-[2-[(3R)-3-hydroxy-l-methyl-2-oxo-pyrrolidin-3-yl]ethynyl]phenyl]-4-methyl-pyridine-2-carboxamide] | < 0.1 | 7.59 | < 5.70 |  |  | 
CN1CC[C@@](O)(C#Cc2cccc(-c3nc(C(N)=O)cc(N(C)C)n3)c2)C1=O [Example 6, 6-(dimethylamino)-2-[3-[2-[(3R)-3-hydroxy-1-methyl-2-oxo-pyrrolidin-3-yl]ethynyl]phenyl] pyrimidine-4-carboxamide] | 0.83 | 6.97 | < 4.70 |  |  | 
CN1CC[C@@](O)(C#Cc2cccc(-c3ncc(NCC4(C)COC4)c(C(N)=O)n3)c2)C1=O [Example 105, 2-[3-[2-[(3R)-3-hydroxy-1-methyl-2-oxo-pyrrolidin-3-yl]ethynyl]phenyl]-5-[(3-methyloxetan-3-yl)methylamino]pyrimidine-4-carboxamide] | 0.35 | 7.13 | ≤ 5.70 |  |  | 
CN1CCC(O)(C#Cc2cccc(-c3nc(C(N)=O)cn4ccnc34)c2)C1=O (stereo in doubt) [Example 45, 8-(3-[2-[(3S)-3-hydroxy-1-methyl-2-oxopyrrolidin-3-yl]ethynyl]phenyl)imidazo [1,2-a]pyrazine-6-carboxamide] | 0.39 | 6.91 | < 4.70 |  |  | 
C[C@H]1CCN1c1cc(C(N)=O)nc(-c2cccc(C#C[C@]3(O)CCN(C)C3=O)c2)n1 [Example 23, 2-[3-[2-[(3R)-3-hydroxy-1-methyl-2-oxo-pyrrolidin-3-yl]ethynyl]phenyl]-6-[(2S)-2-methylazetidin-1-yl] pyrimidine-4-carboxamide] | 1.48 | 7.02 | < 4.70 |  |  | 
COC(C)(C)CNc1cnc(-c2cccc(C#C[C@]3(O)CCN(C)C3=O)c2)nc1C(N)=O [Example 101, 2-[3-[2-[(3R)-3-hydroxy-1-methyl-2-oxo-pyrrolidin-3-yl]ethynyl]phenyl]-5-[(2-methoxy-2-methyl-propyl)amino]pyrimidine-4-carboxamide] | 0.52 | 7.03 | ≤ 4.70 |  |  | 
CN1CC[C@@](O)(C#Cc2cccc(-c3nc(C(N)=O)cc(N4CCOCC4)n3)c2)C1=O [Example 2, 2-[3-[2-[(3R)-3-hydroxy-1-methyl-2-oxo-pyrrolidin-3-yl]ethynyl]phenyl]-6-morpholino-pyrimidine-4-carboxamide] | 1.73 | 7.00 | < 4.70 |  |  | 
Cc1cnn(-c2cc(C(N)=O)nc(-c3cccc(C#C[C@]4(O)CCN(C)C4=O)c3)n2)c1 [Example 104, 2-[3-[2-[(3R)-3-hydroxy-1-methyl-2-oxo-pyrrolidin-3-yl]ethynyl]phenyl]-6-(4-methylpyrazol-1-yl) pyrimidine-4-carboxamide] |  |  |  | 0.4 | 7.16 | ≤ 4.70
COCCN(C)c1cc(C(N)=O)nc(-c2cccc(C#C[C@]3(O)CCN(C)C3=O)c2)n1 [Example 10, 2-[3-[2-[(3R)-3-hydroxy-1-methyl-2-oxo-pyrrolidin-3-yl]ethynyl]phenyl]-6-[2-methoxyethyl(methyl)amino] pyrimidine-4-carboxamide] | 1.17 | 6.58 | < 4.70 |  |  | 
CN1CC[C@@](O)(C#Cc2cccc(-c3nc(C(N)=O)c4ccc(F)cc4n3)c2)C1=O [Example 43, 7-fluoro-2-(3-[2-[(3R)-3-hydroxy-1-methyl-2-oxopyrrolidin-3-yl]ethynyl]phenyl)quinazoline-4-carboxamide] | 0.08 | 7.85 | < 4.70 |  |  | 
CN1CC[C@@](O)(C#Cc2cccc(-c3ncc(NCCN4CCOCC4)c(C(N)=O)n3)c2)C1=O [Example 102, 2-[3-[2-[(3R)-3-hydroxy-1-methyl-2-oxo-pyrrolidin-3-yl]ethynyl]phenyl]-5-(2-morpholinoethylamino) pyrimidine-4-carboxamide] | 0.21 | 7.17 | ≤ 4.70 |  |  | 
Cc1cc(C(N)=O)nc(-c2cccc(C#C[C@]3(O)CCN(C)C3=O)c2)c1F [Example 151, 5-fluoro-6-[3-[2-[(3R)-3-hydroxy-l-methyl-2-oxo-pyrrolidin-3-yl]ethynyl]phenyl]-4-methyl-pyridine-2-carboxamide] | 0.67 | 6.40 | < 5.70 |  |  | 
CCn1ncc2c(-c3cccc(C#C[C@]4(O)CCN(C)C4=O)c3)nc(C(N)=O)cc21 [Example 114, 1-ethyl-4-[3-[2-[(3R)-3-hydroxy-1-methyl-2-oxo-pyrrolidin-3-yl]ethynyl]phenyl]pyrazolo[4,3-c] pyridine-6-carboxamide] | 1.48 | 6.68 | ≤ 5.70 |  |  | 
CN1CC[C@@](O)(C#Cc2cccc(-c3cc(-c4cnccn4)cc(C(N)=O)n3)c2)C1=O [Example 127, 6-[3-[2-[(3R)-3-hydroxy-1-methyl-2-oxo-pyrrolidin-3-yl]ethynyl]phenyl]-4-pyrazin-2-yl-pyridine-2-carboxamide] | 0.08 | 6.74 | ≤ 5.70 |  |  | 
